Reference: patent publication US20100298141A1, “SUBSTITUTED PYRIDINE N-OXIDE HERBICIDES” (E. I. DU PONT DE NEMOURS AND COMPANY, priority 2007, published 2010)

What was measured:
[1] = test system: barnyardgrass; test: Test A pre-/postemergence greenhouse test; assay type: in vivo, Echinochloa crus-galli; details: for Plant response rating, Barnyardgrass: 0 to 100 scale where 0 is no effect and 100 is complete control; for Barnyardgrass plant response rating: 0 to 100 scale
Summary of the method: (§1)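 Planting was into mixed loam soil and sand; preemergence treatment followed as a directed soil spray. Concurrently, emerged plants (one- to two-leaf, 2–10 cm) received postemergence applications of identically formulated compound (non-phytotoxic solvent, surfactant). After approximately ten days under greenhouse conditions, injury was judged by eye against untreated plants.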

[2] = test system: crabgrass; test: Test A pre-/postemergence greenhouse test; assay type: in vivo, Digitaria sanguinalis; details: for Plant response rating, Crabgrass, Large: 0 to 100 scale where 0 is no effect and 100 is complete control; for Crabgrass, Large plant response rating: 0 to 100 scale
Summary of the method: as §1

[3] = test system: giant foxtail; test: Test A pre-/postemergence greenhouse test; assay type: in vivo, Setaria faberi; details: for Plant response rating, Foxtail, Giant: 0 to 100 scale where 0 is no effect and 100 is complete control; for Foxtail, Giant plant response rating: 0 to 100 scale
Summary of the method: as §1

[4] = test system: morningglory; test: Test A pre-/postemergence greenhouse test; assay type: in vivo, Ipomoea spp.; details: for Plant response rating, Morningglory: 0 to 100 scale where 0 is no effect and 100 is complete control; for Morningglory plant response rating: 0 to 100 scale
Summary of the method: as §1

[5] = test system: redroot pigweed; test: Test A pre-/postemergence greenhouse test; assay type: in vivo, Amaranthus retroflexus; details: for Plant response rating, Pigweed: 0 to 100 scale where 0 is no effect and 100 is complete control; for Pigweed plant response rating: 0 to 100 scale
Summary of the method: as §1

[6] = test system: velvetleaf; test: Test A pre-/postemergence greenhouse test; assay type: in vivo, Abutilon theophrasti; details: for Plant response rating, Velvetleaf: 0 to 100 scale where 0 is no effect and 100 is complete control; for Velvetleaf plant response rating: 0 to 100 scale
Summary of the method: as §1

[7] = test system: wheat; test: Test A pre-/postemergence greenhouse test; assay type: in vivo, Triticum aestivum; details: for Plant response rating, Wheat: 0 to 100 scale where 0 is no effect and 100 is complete control; for Wheat plant response rating: 0 to 100 scale
Summary of the method: as §1

[8] = test system: corn; test: Test A pre-/postemergence greenhouse test; assay type: in vivo, Zea mays; details: for Plant response rating, Corn: 0 to 100 scale where 0 is no effect and 100 is complete control; for Corn plant response rating: 0 to 100 scale
Summary of the method: as §1

[9] = test system: rice; test: Test C flooded paddy test; assay type: in vivo, Oryza sativa; details: Flood
Summary of the method: (§2)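 Greenhouse pots flooded to 3 cm above soil at time of treatment received compound via the water, which stayed at that level.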

[10] = test system: umbrella sedge; test: Test C flooded paddy test; assay type: in vivo, Cyperus difformis; details: Flood
Summary of the method: as §2

[11] = test system: duck salad; test: Test C flooded paddy test; assay type: in vivo, Heteranthera limosa; details: Flood
Summary of the method: as §2

[12] = test system: barnyardgrass; test: Test C flooded paddy test; assay type: in vivo, Echinochloa crus-galli; details: Flood
Summary of the method: as §2

[13] = Postemergence, 500 g ai/ha, 0 is no effect, 100 is complete control
[14] = Preemergence, 125 g ai/ha, 0 no effect, 100 complete control
[15] = 31 g ai/ha, scale 0 to 100 (0 no effect, 100 complete control)
[16] = 62 g ai/ha, scale 0 to 100, 0 no effect, 100 complete control, 13 to 15 days
[17] = 125 g ai/ha, scale 0 to 100, 0 no effect, 100 complete control, 13 to 15 days
[18] = 250 g ai/ha, scale 0 to 100, 0 no effect, 100 complete control, 13 to 15 days
[19] = Preemergence, 500 g ai/ha, 0 no effect, 100 complete control
[20] = 62 g ai/ha, scale 0 to 100 (0 no effect, 100 complete control)

With `Cn1nc(C(F)(F)F)c(C[S+]([O-])c2c(F)ccc[n+]2[O-])c1Cl` (centres unmarked) [Compound 52] the “Plant response rating, Barnyardgrass” value ([1]; Postemergence, 125 g ai/ha) was 40, the “Barnyardgrass plant response rating” value [1, 13] was 70 and the “Barnyardgrass plant response rating” value [1, 14] was 10. For the same compound, the “Plant response rating, Barnyardgrass” value ([1]; Preemergence, 500 g ai/ha) was 80, the “Plant response rating, Crabgrass, Large” value ([2]; Postemergence, 125 g ai/ha) was 30 and the “Crabgrass, Large plant response rating” value [2, 13] was 40. The “Crabgrass, Large plant response rating” value [2, 14] was 0, the “Plant response rating, Crabgrass, Large” value ([2]; Preemergence, 500 g ai/ha) was 40 and the “Plant response rating, Foxtail, Giant” value ([3]; Postemergence, 125 g ai/ha) was 40. The “Foxtail, Giant plant response rating” value [3, 13] was 60, the “Foxtail, Giant plant response rating” value [3, 14] was 30 and the “Plant response rating, Foxtail, Giant” value ([3]; Preemergence, 500 g ai/ha) was 90. For the same compound, the “Plant response rating, Morningglory” value ([4]; Postemergence, 125 g ai/ha) was 0, the “Morningglory plant response rating” value [4, 13] was 20 and the “Morningglory plant response rating” value [4, 14] was 0. For the same compound, the “Plant response rating, Morningglory” value ([4]; Preemergence, 500 g ai/ha) was 40, the “Plant response rating, Pigweed” value ([5]; Postemergence, 125 g ai/ha) was 40 and the “Pigweed plant response rating” value [5, 13] was 70. The “Plant response rating, Pigweed” value ([5]; Preemergence, 500 g ai/ha) was 100, the “Plant response rating, Velvetleaf” value ([6]; Postemergence, 125 g ai/ha) was 50 and the “Velvetleaf plant response rating” value [6, 13] was 60. For the same compound, the “Velvetleaf plant response rating” value [6, 14] was 0, the “Plant response rating, Velvetleaf” value ([6]; Preemergence, 500 g ai/ha) was 0 and the “Plant response rating, Wheat” value ([7]; Postemergence, 125 g ai/ha) was 0. The “Wheat plant response rating” value [7, 13] was 50, the “Wheat plant response rating” value [7, 14] was 0 and the “Plant response rating, Wheat” value ([7]; Preemergence, 500 g ai/ha) was 0. The “Plant response rating, Corn” value ([8]; Postemergence, 125 g ai/ha) was 0, the “Corn plant response rating” value [8, 13] was 30 and the “Corn plant response rating” value [8, 14] was 0. For the same compound, the “Plant response rating, Corn” value ([8]; Preemergence, 500 g ai/ha) was 0, the “Plant response rating, Rice” value [9, 15] was 0 and the “Plant response rating, Rice” value [9, 16] was 0. The “Plant response rating, Rice” value [9, 17] was 0, the “Plant response rating, Rice” value [9, 18] was 0 and the “Plant response rating, Sedge, Umbrella” value [10, 15] was 0. For the same compound, the “Plant response rating, Sedge, Umbrella” value [10, 17] was 40, the “Plant response rating, Sedge, Umbrella” value [10, 18] was 85 and the “Plant response rating, Ducksalad” value [11, 15] was 0. For the same compound, the “Plant response rating, Ducksalad” value [11, 16] was 0, the “Plant response rating, Ducksalad” value [11, 17] was 40 and the “Plant response rating, Ducksalad” value [11, 18] was 60. The “Plant response rating, Barnyardgrass” value [12, 15] was 0, the “Plant response rating, Barnyardgrass” value [12, 16] was 0 and the “Plant response rating, Barnyardgrass” value [12, 17] was 0. For the same compound, the “Plant response rating, Barnyardgrass” value [12, 18] was 0.
With `Cn1nc(C(F)(F)F)c(CS(=O)(=O)c2ccc(Cl)c[n+]2[O-])c1OCC(F)F` [Compound 93] the “Plant response rating, Barnyardgrass” value ([1]; Postemergence, 125 g ai/ha) was 70, the “Barnyardgrass plant response rating” value [1, 13] was 80 and the “Barnyardgrass plant response rating” value [1, 14] was 60. The “Plant response rating, Barnyardgrass” value ([1]; Preemergence, 500 g ai/ha) was 90, the “Plant response rating, Crabgrass, Large” value ([2]; Postemergence, 125 g ai/ha) was 50 and the “Crabgrass, Large plant response rating” value [2, 13] was 80. For the same compound, the “Crabgrass, Large plant response rating” value [2, 14] was 60, the “Plant response rating, Crabgrass, Large” value ([2]; Preemergence, 500 g ai/ha) was 90 and the “Plant response rating, Foxtail, Giant” value ([3]; Postemergence, 125 g ai/ha) was 60. The “Foxtail, Giant plant response rating” value [3, 13] was 80, the “Foxtail, Giant plant response rating” value [3, 14] was 60 and the “Plant response rating, Foxtail, Giant” value ([3]; Preemergence, 500 g ai/ha) was 90. For the same compound, the “Plant response rating, Morningglory” value ([4]; Postemergence, 125 g ai/ha) was 30, the “Morningglory plant response rating” value [4, 13] was 40 and the “Morningglory plant response rating” value [4, 14] was 0. For the same compound, the “Plant response rating, Morningglory” value ([4]; Preemergence, 500 g ai/ha) was 0, the “Plant response rating, Pigweed” value ([5]; Postemergence, 125 g ai/ha) was 60 and the “Pigweed plant response rating” value [5, 13] was 70. The “Pigweed plant response rating” value [5, 14] was 70, the “Plant response rating, Pigweed” value ([5]; Preemergence, 500 g ai/ha) was 100 and the “Plant response rating, Velvetleaf” value ([6]; Postemergence, 125 g ai/ha) was 0. For the same compound, the “Velvetleaf plant response rating” value [6, 13] was 50, the “Velvetleaf plant response rating” value [6, 14] was 0 and the “Velvetleaf plant response rating” value [6, 19] was 40. The “Plant response rating, Wheat” value ([7]; Postemergence, 125 g ai/ha) was 20, the “Wheat plant response rating” value [7, 13] was 40 and the “Wheat plant response rating” value [7, 14] was 30. The “Wheat plant response rating” value [7, 19] was 30, the “Plant response rating, Corn” value ([8]; Postemergence, 125 g ai/ha) was 30 and the “Corn plant response rating” value [8, 13] was 30. For the same compound, the “Corn plant response rating” value [8, 14] was 0, the “Plant response rating, Corn” value ([8]; Preemergence, 500 g ai/ha) was 0 and the “Plant response rating, Rice” value [9, 20] was 0. For the same compound, the “Plant response rating, Rice” value [9, 18] was 30, the “Plant response rating, Sedge, Umbrella” value [10, 20] was 0 and the “Plant response rating, Sedge, Umbrella” value [10, 18] was 40. For the same compound, the “Plant response rating, Ducksalad” value [11, 20] was 0, the “Plant response rating, Ducksalad” value [11, 18] was 50 and the “Plant response rating, Barnyardgrass” value [12, 20] was 0. For the same compound, the “Plant response rating, Barnyardgrass” value [12, 18] was 20.
